Assay: xn = mol fraction of the nth substance listed
Conditions: Liquid, Bellows volumetry

C=C [ethene] + Cc1ccccc1
Conditions	mass density [kg/m3]
351.6 K, 20700 kPa, x1 = 0.3067	730.8
351.6 K, 27400 kPa, x1 = 0.3067	738.9
351.6 K, 30700 kPa, x1 = 0.3067	742.5
373.8 K, 4800 kPa, x1 = 0.3067	677.2
373.8 K, 4900 kPa, x1 = 0.3067	678.1
373.8 K, 5500 kPa, x1 = 0.3067	679.6
373.8 K, 6200 kPa, x1 = 0.3067	680.6
373.8 K, 6900 kPa, x1 = 0.3067	682.1
373.8 K, 8600 kPa, x1 = 0.3067	685.1
373.8 K, 10300 kPa, x1 = 0.3067	688.2
373.8 K, 16700 kPa, x1 = 0.3067	698.5
373.8 K, 17400 kPa, x1 = 0.3067	699.5
373.8 K, 24000 kPa, x1 = 0.3067	709.1
373.8 K, 30800 kPa, x1 = 0.3067	718.4
373.8 K, 36900 kPa, x1 = 0.3067	725.7
373.8 K, 37700 kPa, x1 = 0.3067	726.8
373.8 K, 44200 kPa, x1 = 0.3067	734.3
373.8 K, 51200 kPa, x1 = 0.3067	741.9
375.1 K, 1860 kPa, x1 = 0.1194	732.3
375.1 K, 2200 kPa, x1 = 0.1194	733.4
375.1 K, 2880 kPa, x1 = 0.1194	734.5
375.1 K, 3430 kPa, x1 = 0.1194	735
375.1 K, 4460 kPa, x1 = 0.1194	736.7
375.1 K, 5830 kPa, x1 = 0.1194	738.3
375.1 K, 6720 kPa, x1 = 0.1194	740
375.1 K, 7330 kPa, x1 = 0.1194	740.6
375.1 K, 10280 kPa, x1 = 0.1194	745
375.1 K, 13770 kPa, x1 = 0.1194	749.6
375.1 K, 16990 kPa, x1 = 0.1194	753.6
375.1 K, 20680 kPa, x1 = 0.1194	758.2
375.1 K, 23900 kPa, x1 = 0.1194	761.7
375.1 K, 27390 kPa, x1 = 0.1194	766.4
375.1 K, 30540 kPa, x1 = 0.1194	769.4
375.1 K, 34240 kPa, x1 = 0.1194	773.7
375.1 K, 37600 kPa, x1 = 0.1194	777.3
375.1 K, 41300 kPa, x1 = 0.1194	781
375.1 K, 44240 kPa, x1 = 0.1194	783.5
375.1 K, 47940 kPa, x1 = 0.1194	787.2
421 K, 6400 kPa, x1 = 0.3067	620.7
421 K, 6900 kPa, x1 = 0.3067	622.8
421 K, 8600 kPa, x1 = 0.3067	628.3
421 K, 10500 kPa, x1 = 0.3067	633.8
421 K, 12400 kPa, x1 = 0.3067	638.2
421 K, 13800 kPa, x1 = 0.3067	643
421 K, 17300 kPa, x1 = 0.3067	652
421 K, 20700 kPa, x1 = 0.3067	659.9
421 K, 24300 kPa, x1 = 0.3067	667
421 K, 30700 kPa, x1 = 0.3067	678.1

Source: the NIST ThermoML archive (doi:10.1016/j.fluid.2017.06.022)
